Measurements taken from publication PMC10681007, “Targeted Degradation of XIAP is Sufficient and Specific to Induce Apoptosis in MYCN-overexpressing High-risk Neuroblastoma” (Cancer Research Communications, 2023).

Assays:
Assay type in all cases: cell-based, Human
[1] = tested on: BE(2)-C; assay: RealTime-Glo MT cell viability assay; details: Homo sapiens
Protocol: (§1) Cell viability was measured in real time using RealTime-Glo MT Cell Viability Assay as according to manufacturer's instructions from Promega. Cells were seeded at 1 × 10^4 cells per well and treated with a range of doses of indicated antagonists, followed by continuous bioluminescence reading every 24 hours for 3 days using luminescent plate reader, Varioskan (SkanIT software). IC50 was determined using GraphPad Prism software.
(§2) To determine their efficacy in neuroblastoma, a panel of neuroblastoma cell lines including neuroblastoma patient-derived cell lines and noncancerous normal tissue-derived cell lines were treated with increasing doses of each antagonist (0–100 µmol/L), followed by real-time measurement of cell viability every 24 for 72 hours.

[2] = tested on: CHP212; assay: RealTime-Glo MT cell viability assay; details: Homo sapiens, CHP-212
Protocol: as §1, §2

[3] = tested on: IMR-32; assay: RealTime-Glo MT cell viability assay; details: Homo sapiens
Protocol: as §1, §2

[4] = tested on: KELLY; assay: RealTime-Glo MT cell viability assay; details: Homo sapiens
Protocol: as §1, §2

[5] = tested on: NB1; assay: RealTime-Glo MT cell viability assay; details: Homo sapiens
Protocol: as §1, §2

[6] = tested on: NBL-07-0317 patient-derived neuroblastoma cells; assay: RealTime-Glo MT cell viability assay; details: Homo sapiens, Neuroblastoma cell
Protocol: as §1, §2

[7] = tested on: NBL01-1116 patient-derived neuroblastoma cells; assay: RealTime-Glo MT cell viability assay; details: Homo sapiens, Neuroblastoma cell
Protocol: as §1, §2

[8] = tested on: NBL16-0118 patient-derived neuroblastoma cells; assay: RealTime-Glo MT cell viability assay; details: Homo sapiens, Neuroblastoma cell
Protocol: as §1, §2

[9] = tested on: NBL27-0218A patient-derived neuroblastoma cells; assay: RealTime-Glo MT cell viability assay; details: Homo sapiens, Neuroblastoma cell
Protocol: as §1, §2

[10] = tested on: NLF; assay: RealTime-Glo MT cell viability assay; details: Homo sapiens
Protocol: as §1, §2

[11] = tested on: SK-N-AS; assay: RealTime-Glo MT cell viability assay; details: Homo sapiens
Protocol: as §1, §2

[12] = tested on: SK-N-SH; assay: RealTime-Glo MT cell viability assay; details: Homo sapiens
Protocol: as §1, §2

[13] = tested on: HS5 (bone marrow origin); assay: RealTime-Glo MT cell viability assay, noncancerous normal cells; details: Homo sapiens
Protocol: as §1, §2
(§3) To evaluate this, noncancerous normal tissue-derived cell lines THLE3 and HS5 were utilized to evaluate toxicity and tolerability.

[14] = tested on: THLE3 (liver origin); assay: as above; details: Homo sapiens
Protocol: as §1, §2, §3

[15] = tested on: neuroblastoma cells across the panel of cell lines; assay: Cell viability, IC50 range across the panel; details: Homo sapiens, Neuroblastoma cell; range over cell lines, doses 0–100 µmol/L, viability every 24 for 72 hours; read-out: IC50 against neuroblastoma cells across the panel of cell lines
Protocol: as §1, with “([…]” for “(SkanIT”, “software. To determine their efficacy in neuroblastoma, a panel of neuroblastoma cell lines including neuroblastoma patient-derived cell lines and noncancerous normal tissue-derived cell lines were treated with increasing doses of each antagonist (0-100 μmol/L), followed by real-time measurement of cell viability every 24 for 72 hours. […] Supplementary Table S2; Fig. 2A). […] Fig. 2A).” for “software.”

[16] = tested on: THLE3 and HS5; assay: Toxicity and tolerability in noncancerous normal tissue-derived cell lines; details: THLE3 and HS5 versus neuroblastoma cells
Protocol: as §1
To evaluate this, noncancerous normal tissue-derived cell lines THLE3 and HS5 were utilized to evaluate toxicity and tolerability. […] On the basis of their overall potency and specificity toward neuroblastoma cells over noncancerous normal cells, A4, B3, and BV6 were selected as the more efficacious antagonists to be studied further in subsequent experiments (Fig. 2A).

CN[C@@H](C)C(=O)N[C@H](C(=O)N1CCC[C@H]1C(=O)Nc1sc(-c2ncco2)nc1-c1ccccc1)C1CCCCC1 [CUDC-427]
IC50 ([1]; 24 hours): 64.9 µM
IC50 ([1]; 48 hours): 60.9 µM
IC50 ([1]; 72 hours): 55.6 µM
IC50 ([2]; CHP212, 24 hours): 57.6 µM
IC50 ([2]; CHP212, 48 hours): 50.1 µM
IC50 ([2]; CHP212, 72 hours): 50 µM
IC50 ([3]; IMR-32, 24 hours): 59 µM
IC50 ([3]; IMR-32, 48 hours): 46.5 µM
IC50 ([3]; IMR-32, 72 hours): 40.6 µM
IC50 ([4]; 24 hours): 32.5 µM
IC50 ([4]; 48 hours): 29.5 µM
IC50 ([4]; 72 hours): 26 µM
IC50 ([5]; NB1, 24 hours): 42 µM
IC50 ([5]; NB1, 48 hours): 38.1 µM
IC50 ([5]; NB1, 72 hours): 36.9 µM
IC50 ([6]; NBL-07-0317, 24 hours): 33.5 µM
IC50 ([6]; NBL-07-0317, 48 hours): 33 µM
IC50 ([6]; NBL-07-0317, 72 hours): 32 µM
IC50 ([7]; NBL01-1116, 24 hours): 40 µM
IC50 ([7]; NBL01-1116, 48 hours): 38 µM
IC50 ([7]; NBL01-1116, 72 hours): 38 µM
IC50 ([8]; NBL16-0118, 24 hours): 35 µM
IC50 ([8]; NBL16-0118, 48 hours): 32 µM
IC50 ([8]; NBL16-0118, 72 hours): 30 µM
IC50 ([9]; 24 hours): 32.8 µM
IC50 ([9]; 48 hours): 30.4 µM
IC50 ([9]; 72 hours): 28.4 µM
IC50 ([10]; 24 hours): 45 µM
IC50 ([10]; 48 hours): 38.6 µM
IC50 ([10]; 72 hours): 30.2 µM
IC50 ([11]; 24 hours): 33.2 µM
IC50 ([11]; 48 hours): 26.9 µM
IC50 ([11]; 72 hours): 22.3 µM
IC50 ([12]; 24 hours): 54.1 µM
IC50 ([12]; 48 hours): 40 µM
IC50 ([12]; 72 hours): 33.5 µM
IC50 ([13]; HS5, 24 hours): 29.9 µM
IC50 ([13]; HS5, 48 hours): 26.5 µM
IC50 ([13]; HS5, 72 hours): 23.8 µM
IC50 ([14]; THLE3, 24 hours): 40.2 µM
IC50 ([14]; THLE3, 48 hours): 28.8 µM
IC50 ([14]; THLE3, 72 hours): 29.5 µM
IC50 [15]: 20 to 60 µM
toxicity to noncancerous cells [16]: more toxic toward noncancerous cells than neuroblastoma cells

CN[C@@H](C)C(=O)N[C@H]1CN(C(=O)CC(C)C)CC[C@H]2CC[C@@H](C(=O)NC(c3ccccc3)c3ccccc3)N2C1=O [Debio 1143]
IC50 ([1]; 24 hours): > 100 µM
IC50 ([1]; 48 hours): > 100 µM
IC50 ([1]; 72 hours): > 100 µM
IC50 ([2]; CHP212, 24 hours): > 100 µM
IC50 ([2]; CHP212, 48 hours): > 100 µM
IC50 ([2]; CHP212, 72 hours): > 100 µM
IC50 ([3]; IMR-32, 24 hours): > 100 µM
IC50 ([3]; IMR-32, 48 hours): > 100 µM
IC50 ([3]; IMR-32, 72 hours): 64.5 µM
IC50 ([4]; 24 hours): 91 µM
IC50 ([4]; 48 hours): 73.5 µM
IC50 ([4]; 72 hours): > 100 µM
IC50 ([5]; NB1, 24 hours): > 100 µM
IC50 ([5]; NB1, 48 hours): > 100 µM
IC50 ([5]; NB1, 72 hours): 64.5 µM
IC50 ([6]; NBL-07-0317, 24 hours): > 100 µM
IC50 ([6]; NBL-07-0317, 48 hours): 93 µM
IC50 ([6]; NBL-07-0317, 72 hours): > 100 µM
IC50 ([7]; NBL01-1116, 24 hours): > 100 µM
IC50 ([7]; NBL01-1116, 48 hours): > 100 µM
IC50 ([7]; NBL01-1116, 72 hours): > 100 µM
IC50 ([8]; NBL16-0118, 24 hours): > 100 µM
IC50 ([8]; NBL16-0118, 48 hours): > 100 µM
IC50 ([8]; NBL16-0118, 72 hours): > 100 µM
IC50 ([9]; 24 hours): > 100 µM
IC50 ([9]; 48 hours): > 100 µM
IC50 ([9]; 72 hours): 50 µM
IC50 ([10]; 24 hours): > 100 µM
IC50 ([10]; 48 hours): 78.5 µM
IC50 ([10]; 72 hours): > 100 µM
IC50 ([11]; 24 hours): 68.5 µM
IC50 ([11]; 48 hours): 50.5 µM
IC50 ([11]; 72 hours): 85 µM
IC50 ([12]; 24 hours): > 100 µM
IC50 ([12]; 48 hours): > 100 µM
IC50 ([12]; 72 hours): 35.5 µM
IC50 ([13]; HS5, 24 hours): > 100 µM
IC50 ([13]; HS5, 48 hours): 90 µM
IC50 ([13]; HS5, 72 hours): > 100 µM
IC50 ([14]; THLE3, 24 hours): > 100 µM
IC50 ([14]; THLE3, 48 hours): 73 µM
IC50 ([14]; THLE3, 72 hours): 80 µM
toxicity to noncancerous cells [16]: more toxic toward noncancerous cells than neuroblastoma cells
